Data as given in US20260042731A1, “(2,4-DICHLOROPHENOXY)ACETIC ACID ANALOGS” (CORTEVA AGRISCIENCE LLC, priority 2022, published 2026).
Where two headings read alike, the source gives them in different places.

Tests used:
[1] = tested on: Ambrosia artemisiifolia (AMBEL), common ragweed; assay: Postemergence herbicide evaluation, growth of Ambrosia artemisiifolia (AMBEL); assay type: in vivo; details: Ambrosia artemisiifolia, post-emergence, percent reduction in plant size relative to untreated control, read-out: AVE. AMBEL; for pest or weed control at 280 g/ha: 280 g ae/ha; for pest or weed control at 560 g/ha: 560 g ae/ha
Velvetleaf (ABUTH) = assay: Greenhouse post-emergence mixture trials, percent visual control; assay type: in vivo; details: ABUTH, 21 DAA; for pest or weed control at 560 g/ha / pest or weed control at 1120 g/ha: Abutilon theophrasti, post-emergence, 504 h; for pest or weed control at 560 g/ha: compound 560 g ae/ha; for pest or weed control at 1120 g/ha: compound 1120 g ae/ha, read-out: % Control
[2] = tested on: glyphosate resistant Conyza canadensis (L.) (ERICA), horseweed; assay: Postemergence herbicide evaluation, growth of Conyza canadensis (ERICA); assay type: in vivo; details: Erigeron canadensis, post-emergence, percent reduction in plant size relative to untreated control, read-out: Ave. ERICA; for pest or weed control at 280 g/ha: 280 g ae/ha; for pest or weed control at 560 g/ha: 560 g ae/ha
[3] = tested on: weeds (ABUTH, AMATA, AMBEL, CHEAL, ERICA); assay: Postemergence herbicide evaluation, overall average % weed control across ABUTH, AMATA, AMBEL, CHEAL, ERICA; assay type: in vivo; details: post-emergence, average over the five weeds, read-out: Overall Ave % Weed Control; for pest or weed control at 280 g/ha: 280 g ae/ha; for pest or weed control at 560 g/ha: 560 g ae/ha
[4] = tested on: Amaranthus rudis (AMATA), tall water hemp; assay: Postemergence herbicide evaluation, growth of Amaranthus rudis (AMATA); assay type: in vivo; details: Amaranthus tuberculatus, post-emergence, percent reduction in plant size relative to untreated control, read-out: Ave. AMATA; for pest or weed control at 280 g/ha: 280 g ae/ha; for pest or weed control at 560 g/ha: 560 g ae/ha
[5] = Volatility of compounds measured by thermogravimetric analysis (TGA); assay type: physicochemical
[6] = tested on: Common Lambsquarters (CHEAL); assay: Greenhouse post-emergence mixture trials, percent visual control; assay type: in vivo; details: CHEAL, 21 DAA; for pest or weed control at 560 g/ha / pest or weed control at 1120 g/ha: Chenopodium album, post-emergence, 504 h; for pest or weed control at 1120 g/ha: read-out: % Control
Corn (ZEAMX) = assay: as above; assay type: in vivo; details: ZEAMX, 21 DAA; for plant injury at 560 g/ha / plant injury at 1120 g/ha: Zea mays, post-emergence, 504 h; for plant injury at 560 g/ha: compound 560 g ae/ha
[7] = tested on: Abutilon theophrasti (ABUTH), velvetleaf; assay: Postemergence herbicide evaluation, growth of Abutilon theophrasti (ABUTH); assay type: in vivo; details: Abutilon theophrasti, post-emergence, percent reduction in plant size relative to untreated control, read-out: AVE. ABUTH; for pest or weed control at 280 g/ha: 280 g ae/ha; for pest or weed control at 560 g/ha: 560 g ae/ha
[8] = tested on: Chenopodium album (CHEAL), common lambsquarters; assay: Postemergence herbicide evaluation, growth of Chenopodium album (CHEAL); assay type: in vivo; details: Chenopodium album, post-emergence, percent reduction in plant size relative to untreated control, read-out: Ave. CHEAL; for pest or weed control at 280 g/ha: 280 g ae/ha; for pest or weed control at 560 g/ha: 560 g ae/ha
[9] = no mixing partner, Trial Bridge 3
[10] = Trial Bridge 1, mixing partner none
[11] = Trial Bridge 2, no mixing partner
[12] = Trial Bridge 1, compound 560 g ae/ha + Arylex 5 g ai or ae/ha
[13] = Trial Bridge 1, compound 560 g ae/ha + Mesotrione 150 g ai or ae/ha
[14] = Trial Bridge 1, compound 1120 g ae/ha + Glufosinate 600 g ai or ae/ha
[15] = Trial Bridge 1, compound 1120 g ae/ha + Mesotrione 150 g ai or ae/ha
[16] = Trial Bridge 2, compound 560 g ae/ha + Saflufenacil 25 g ai or ae/ha
[17] = Trial Bridge 2, compound 560 g ae/ha + Saflufenacil 75 g ai or ae/ha
[18] = Trial Bridge 2, compound 560 g ae/ha + Trifludimoxazin 50 g ai or ae/ha
[19] = Trial Bridge 2, compound 1120 g ae/ha + Saflufenacil 25 g ai or ae/ha
[20] = Trial Bridge 2, compound 1120 g ae/ha + Saflufenacil 75 g ai or ae/ha
[21] = Trial Bridge 2, compound 1120 g ae/ha + Trifludimoxazin 12.5 g ai or ae/ha
[22] = Trial Bridge 2, compound 1120 g ae/ha + Trifludimoxazin 50 g ai or ae/ha
[23] = Trial Bridge 1, compound 560 g ae/ha, no mixing partner
[24] = Trial Bridge 1, compound 1120 g ae/ha, no mixing partner
[25] = compound 1120 g ae/ha, no mixing partner, Trial Bridge 3

O=C(COc1ccc(Cl)cc1Cl)NOCc1ccccc1 [Compound D8, N-(Benzyloxy)-2-(2,4-dichlorophenoxy)acetamide]
63%: pest or weed control at 280 g/ha ([8]; 168 h, 7 DAA) | pest or weed control at 560 g/ha ([8]; 168 h, 7 DAA)
99%: pest or weed control at 280 g/ha ([1]; 504 h, 21 DAA) | pest or weed control at 560 g/ha ([1]; 504 h, 21 DAA) | pest or weed control at 280 g/ha ([7]; 504 h, 21 DAA)
70%: pest or weed control at 560 g/ha ([2]; 168 h, 7 DAA) | pest or weed control at 280 g/ha ([3]; 168 h, 7 DAA)
93%: pest or weed control at 560 g/ha ([3]; 504 h, 21 DAA) | pest or weed control at 280 g/ha ([7]; 336 h, 14 DAA)
0.04 µg/min: TGA Data (rate of weight loss, volatility) [5]
75%: pest or weed control at 560 g/ha ([1]; 168 h, 7 DAA) | pest or weed control at 560 g/ha ([4]; 168 h, 7 DAA) | pest or weed control at 280 g/ha ([8]; 504 h, 21 DAA)
83%: pest or weed control at 560 g/ha ([4]; 504 h, 21 DAA) | pest or weed control at 280 g/ha ([7]; 168 h, 7 DAA) | pest or weed control at 560 g/ha ([7]; 168 h, 7 DAA) | pest or weed control at 560 g/ha ([8]; 336 h, 14 DAA)
73%: pest or weed control at 560 g/ha ([3]; 168 h, 7 DAA) | pest or weed control at 280 g/ha ([4]; 504 h, 21 DAA)
85%: pest or weed control at 560 g/ha ([2]; 336 h, 14 DAA) | pest or weed control at 280 g/ha ([3]; 336 h, 14 DAA) | pest or weed control at 280 g/ha ([4]; 336 h, 14 DAA) | pest or weed control at 560 g/ha ([4]; 336 h, 14 DAA)
92%: pest or weed control at 560 g/ha ([2]; 504 h, 21 DAA)
97%: pest or weed control at 560 g/ha ([8]; 504 h, 21 DAA)
90%: pest or weed control at 560 g/ha (Velvetleaf (ABUTH); [9])
68%: pest or weed control at 280 g/ha ([1]; 168 h, 7 DAA) | pest or weed control at 280 g/ha ([2]; 168 h, 7 DAA) | pest or weed control at 280 g/ha ([4]; 168 h, 7 DAA)
96%: pest or weed control at 280 g/ha ([1]; 336 h, 14 DAA) | pest or weed control at 560 g/ha ([7]; 504 h, 21 DAA)
65%: pest or weed control at 280 g/ha ([8]; 336 h, 14 DAA)
91%: pest or weed control at 560 g/ha ([7]; 336 h, 14 DAA)
10%: plant injury at 560 g/ha (Corn (ZEAMX); [9])
95%: pest or weed control at 560 g/ha ([1]; 336 h, 14 DAA) | pest or weed control at 1120 g/ha (Velvetleaf (ABUTH); [9]) | pest or weed control at 280 g/ha ([2]; 504 h, 21 DAA) | pest or weed control at 560 g/ha [6, 23] | % Control [6, 23]
100%: % Control (Velvetleaf (ABUTH); compound 560 g ae/ha + Sulfentrazone 130 g ai/ha, Trial Bridge 3) | % Control (Velvetleaf (ABUTH); compound 1120 g ae/ha + Sulfentrazone 130 g ai/ha, Trial Bridge 3) | % Control (Velvetleaf (ABUTH); compound 1120 g ae/ha + Sulfentrazone 347 g ai/ha, Trial Bridge 3) | pest or weed control at 560 g/ha (Velvetleaf (ABUTH); [10]) | pest or weed control at 1120 g/ha (Velvetleaf (ABUTH); [10]) | pest or weed control at 560 g/ha (Velvetleaf (ABUTH); [11]) | pest or weed control at 1120 g/ha (Velvetleaf (ABUTH); [11]) | % Control (Velvetleaf (ABUTH); [12]) | % Control (Velvetleaf (ABUTH); Trial Bridge 1, compound 560 g ae/ha + Glyphosate 1120 g ai or ae/ha) | % Control (Velvetleaf (ABUTH); [13]) | % Control (Velvetleaf (ABUTH); Trial Bridge 1, compound 560 g ae/ha + diclosulam 35 g ai or ae/ha) | % Control (Velvetleaf (ABUTH); Trial Bridge 1, compound 1120 g ae/ha + Arylex 5 g ai or ae/ha) | % Control (Velvetleaf (ABUTH); [14]) | % Control (Velvetleaf (ABUTH); Trial Bridge 1, compound 1120 g ae/ha + Glyphosate 1120 g ai or ae/ha) | % Control (Velvetleaf (ABUTH); [15]) | % Control (Velvetleaf (ABUTH); Trial Bridge 1, compound 1120 g ae/ha + diclosulam 35 g ai or ae/ha) | % Control (Velvetleaf (ABUTH); [16]) | % Control (Velvetleaf (ABUTH); [17]) | % Control (Velvetleaf (ABUTH); [18]) | % Control (Velvetleaf (ABUTH); [19]) | % Control (Velvetleaf (ABUTH); [20]) | % Control (Velvetleaf (ABUTH); [21]) | % Control (Velvetleaf (ABUTH); [22]) | % Control [6, 16] | % Control [6, 17] | % Control ([6]; Trial Bridge 2, compound 560 g ae/ha + Trifludimoxazin 12.5 g ai or ae/ha) | % Control [6, 18] | % Control [6, 19] | % Control [6, 20] | % Control [6, 21] | % Control [6, 22] | % Control ([6]; Trial Bridge 3, compound 560 g ae/ha + Sulfentrazone 130 g ai/ha) | % Control ([6]; Trial Bridge 3, compound 560 g ae/ha + Sulfentrazone 347 g ai/ha) | % Control ([6]; Trial Bridge 3, compound 1120 g ae/ha + Sulfentrazone 130 g ai/ha) | pest or weed control at 1120 g/ha ([6]; Trial Bridge 2, compound 1120 g ae/ha, no mixing partner) | pest or weed control at 560 g/ha ([6]; Trial Bridge 3, compound 560 g ae/ha, no mixing partner) | pest or weed control at 1120 g/ha ([6]; Trial Bridge 3, compound 1120 g ae/ha, no mixing partner) | pest or weed control at 1120 g/ha [6, 24] | % Control [6, 12] | % Control [6, 13] | % Control [6, 14] | % Control [6, 15]
5%: % Control (Corn (ZEAMX); [25]) | plant injury at 560 g/ha (Corn (ZEAMX); Trial Bridge 1, no mixing partner) | plant injury at 1120 g/ha (Corn (ZEAMX); [24]) | plant injury at 560 g/ha (Corn (ZEAMX); Trial Bridge 2, mixing partner none) | plant injury at 1120 g/ha (Corn (ZEAMX); [25])
98%: pest or weed control at 560 g/ha ([6]; Trial Bridge 2, compound 560 g ae/ha, no mixing partner)
88%: pest or weed control at 280 g/ha ([2]; 336 h, 14 DAA) | pest or weed control at 560 g/ha ([3]; 336 h, 14 DAA) | pest or weed control at 280 g/ha ([3]; 504 h, 21 DAA)
